From patent US20060058359A1, “Compounds useful as pesticides” (priority 2002, published 2006)

Assays:
[1] = system: Cat Flea (Cntenocephalides felis); test: Testing with Cat Flea (treated media assay); assay type: in vivo; details: 0.1 μg/g rate in media, infested with eggs, adults counted after five weeks vs acetone only
Description: Media is prepared by mixing 1 part dried bovine blood, 4 parts ground dog food pellets, and 95 parts clean sand. Compounds are dissolved in acetone and further diluted in acetone to yield the required range of concentrations. The acetone solutions are applied to measured amounts of media in small dishes. Final concentrations are expressed as micrograms of compound per gram of media. After the acetone has dried, the treated media is dispensed into small glass vials and infested with 5 to 10 cat flea (Cntenocephalides felis) eggs. The vials are loosely capped and held under controlled conditions for five weeks. Activity is assessed based on the average number of adult cat fleas present in the treated vials compared to the average number of adult cat fleas in the media treated with acetone only.

[2] = system: Cotton Aphid (Aphis gossypii); test: Testing with Cotton Aphid (squash cotyledon foliar spray assay); assay type: in vivo; details: foliar spray on squash, 3 days after application
Excerpt: Yellow crookneck squash, Cucurbita pepo, is planted in 3 inch pots and placed in a greenhouse. Plants are watered regularly for 5 to 7 days until they reach the first emergent leaf stage. Plants are then trimmed to a single cotyledon. The squash assay consists of four squash plants per treatment with each plant cotyledon considered a replicate. Four additional plants are used as a control treatment (receiving solvent blank application only). Twenty-four hours prior to application, a leaf section of heavily infested squash plant from the aphid colony is placed onto each cotyledon, allowing a mixed population of A. gossypii nymphs and adults to migrate and infest the test plants. The pre-infested squash cotyledons are sprayed on both the upper and lower surfaces using an airbrush sprayer set at 2 psi. Formulation is an aqueous solution containing 5% solvent and 0.025% Tween 20 surfactant to yield concentrations of 50 ppm and 5 ppm of the test compound. Plants are sprayed to runoff. Tests are held in ambient laboratory temperatures for three days. At 3 days after application (DM) the number of live aphids are counted with the aid of a dissecting microscope. The number of live aphids in the treatment is compared to the number of live aphids in the solvent blank-treated controls and percent mortality is calculated.

Compound	control of cat fleas [1]	percent mortality ([2]; 5 parts per million)	percent mortality ([2]; 50 parts per million)
C/N=C(/C(=CN(C)C)[N+](=O)[O-])N(C)Cc1ccc(Cl)nc1 [Compound One]	90%	100%	100%
C/N=C(/C(=CNc1ccccc1)[N+](=O)[O-])N(C)Cc1ccc(Cl)nc1 [Compound Three]	38%	100%	100%
